Here are results for five molecules from publication PMC5580309, “Molecular-scale features that govern the effects of O-glycosylation on a carbohydrate-binding module” (Chemical Science, 2015).

In the data set the target is T1, thermolysin (Bacillus thermoproteolyticus, UniProt P00800).
T1 sequence (P00800 233-548): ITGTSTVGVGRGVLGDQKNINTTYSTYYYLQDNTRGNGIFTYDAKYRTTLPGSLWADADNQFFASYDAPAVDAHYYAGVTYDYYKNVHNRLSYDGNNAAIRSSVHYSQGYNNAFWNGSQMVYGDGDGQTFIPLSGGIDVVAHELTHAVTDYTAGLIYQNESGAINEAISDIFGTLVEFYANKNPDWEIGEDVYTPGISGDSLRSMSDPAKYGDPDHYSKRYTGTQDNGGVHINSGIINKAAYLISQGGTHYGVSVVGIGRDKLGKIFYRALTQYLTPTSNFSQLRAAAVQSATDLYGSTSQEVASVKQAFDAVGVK
In words: Proteolytic stability: half-life to thermolysin degradation. To be noted: for Change in Half-Life to Thermolysin Degradation: glyco-variant minus its corresponding unglycosylated CBM (e.g. 2-1), *** not used in the correlation plot; for half-life: thermolysin (isolated protease), thermolysin degradation, mean of three trials ± SD, procedures as described previously (ESI ref 18). The format is in vitro ADME. The method, then: All error bars reported are standard deviations of data achieved from three separate trials.
cellulose that were determined in accordance with our procedures as described previously 18.
The results are presented as mean of three trials ± SD. *Denotes an averaged value of four trials

Bridge positions count the residues as written; N and C are the ends. Peptide text beside a SMILES is read from it. * marks the point of attachment. αGalNAc = CC(=O)N[C@@H]1[C@@H](O)[C@@H](O)[C@@H](CO)O[C@@H]1*; βGlcNAc = CC(=O)N[C@@H]1[C@@H](O)[C@H](O)[C@@H](CO)O[C@H]1*; X3 = CC(=O)N[C@@H]1[C@@H](O)[C@H](O)[C@@H](CO)O[C@@H]1*; βGlc = OC[C@H]1O[C@@H](*)[C@H](O)[C@@H](O)[C@@H]1O; X9 = OC[C@H]1O[C@H](*)[C@H](O)[C@@H](O)[C@H]1O

Consider `CC[C@H](C)[C@@H]1NC(=O)CNC(=O)CNC(=O)[C@@H](NC(=O)[C@H](CCC(N)=O)NC(=O)CNC(=O)[C@H](Cc2ccc(O)cc2)NC(=O)[C@H](Cc2c[nH]cn2)NC(=O)[C@H](CO[C@H]2O[C@H](CO)[C@@H](O)[C@H](O)[C@H]2NC(C)=O)NC(=O)[C@H](CCC(N)=O)NC(=O)[C@@H](N)[C@@H](C)O)CSSC[C@@H]2NC(=O)[C@H]([C@@H](C)O)NC(=O)[C@H]([C@@H](C)O)NC(=O)CNC(=O)[C@H](CO)NC(=O)[C@H](C)NC(=O)[C@H](CSSC[C@@H](C(=O)N[C@@H](CC(C)C)C(=O)O)NC(=O)[C@H](CCC(N)=O)NC(=O)[C@H](CO)NC(=O)[C@H](Cc3ccc(O)cc3)NC(=O)[C@H](Cc3ccc(O)cc3)NC(=O)[C@@H]3CCCN3C(=O)[C@H](CC(N)=O)NC(=O)[C@H](CC(C)C)NC(=O)[C@H](C(C)C)NC(=O)[C@H](CCC(N)=O)NC2=O)NC(=O)[C@H](C(C)C)NC(=O)[C@H]([C@@H](C)O)NC(=O)[C@@H]2CCCN2C(=O)CNC(=O)[C@H](CO)NC(=O)[C@H](Cc2ccc(O)cc2)NC(=O)CNC1=O` [CBM variant 22] (H-TQS(X3)HYGQCGGIGYSGPTVCASGTTCQVLNPYYSQCL-OH; disulfide 8-25, 19-35), for which the “Change in Half-Life to Thermolysin Degradation” value (“Change in Half-Life” below) turned out to be 10.2 min and the half-life (usually the time in which the quantity being followed falls by half) is 24 ± 0.6 min.
As to `CC[C@H](C)[C@@H]1NC(=O)CNC(=O)CNC(=O)[C@@H](NC(=O)[C@H](CCC(N)=O)NC(=O)CNC(=O)[C@H](Cc2ccc(O)cc2)NC(=O)[C@H](Cc2c[nH]cn2)NC(=O)[C@H](CO[C@@H]2O[C@H](CO)[C@@H](O)[C@H](O)[C@H]2NC(C)=O)NC(=O)[C@H](CCC(N)=O)NC(=O)[C@@H](N)[C@@H](C)O)CSSC[C@@H]2NC(=O)[C@H]([C@@H](C)O)NC(=O)[C@H]([C@@H](C)O)NC(=O)CNC(=O)[C@H](CO)NC(=O)[C@H](C)NC(=O)[C@H](CSSC[C@@H](C(=O)N[C@@H](CC(C)C)C(=O)O)NC(=O)[C@H](CCC(N)=O)NC(=O)[C@H](CO)NC(=O)[C@H](Cc3ccc(O)cc3)NC(=O)[C@H](Cc3ccc(O)cc3)NC(=O)[C@@H]3CCCN3C(=O)[C@H](CC(N)=O)NC(=O)[C@H](CC(C)C)NC(=O)[C@H](C(C)C)NC(=O)[C@H](CCC(N)=O)NC2=O)NC(=O)[C@H](C(C)C)NC(=O)[C@H]([C@@H](C)O)NC(=O)[C@@H]2CCCN2C(=O)CNC(=O)[C@H](CO)NC(=O)[C@H](Cc2ccc(O)cc2)NC(=O)CNC1=O` [CBM variant 23] (H-TQS(βGlcNAc)HYGQCGGIGYSGPTVCASGTTCQVLNPYYSQCL-OH; disulfide 8-25, 19-35), the “Change in Half-Life” value was found to be 5.4 min and the half-life is 19.2 ± 0.6 min.
On to `CC[C@H](C)[C@@H]1NC(=O)CNC(=O)CNC(=O)[C@@H](NC(=O)[C@H](CCC(N)=O)NC(=O)CNC(=O)[C@H](Cc2ccc(O)cc2)NC(=O)[C@H](Cc2c[nH]cn2)NC(=O)[C@H](CO[C@@H]2O[C@H](CO)[C@@H](O)[C@H](O)[C@H]2O)NC(=O)[C@H](CCC(N)=O)NC(=O)[C@@H](N)[C@@H](C)O)CSSC[C@@H]2NC(=O)[C@H]([C@@H](C)O)NC(=O)[C@H]([C@@H](C)O)NC(=O)CNC(=O)[C@H](CO)NC(=O)[C@H](C)NC(=O)[C@H](CSSC[C@@H](C(=O)N[C@@H](CC(C)C)C(=O)O)NC(=O)[C@H](CCC(N)=O)NC(=O)[C@H](CO)NC(=O)[C@H](Cc3ccc(O)cc3)NC(=O)[C@H](Cc3ccc(O)cc3)NC(=O)[C@@H]3CCCN3C(=O)[C@H](CC(N)=O)NC(=O)[C@H](CC(C)C)NC(=O)[C@H](C(C)C)NC(=O)[C@H](CCC(N)=O)NC2=O)NC(=O)[C@H](C(C)C)NC(=O)[C@H]([C@@H](C)O)NC(=O)[C@@H]2CCCN2C(=O)CNC(=O)[C@H](CO)NC(=O)[C@H](Cc2ccc(O)cc2)NC(=O)CNC1=O` [CBM variant 24] (H-TQS(βGlc)HYGQCGGIGYSGPTVCASGTTCQVLNPYYSQCL-OH; disulfide 8-25, 19-35), for which the “Change in Half-Life” value came to 3 min and the half-life is 16.8 ± 1.8 min.
Taken in the same sequence, the figures for `CC[C@H](C)[C@@H]1NC(=O)CNC(=O)CNC(=O)[C@@H](NC(=O)[C@H](CCC(N)=O)NC(=O)CNC(=O)[C@H](Cc2ccc(O)cc2)NC(=O)[C@H](Cc2c[nH]cn2)NC(=O)[C@H](CO[C@H]2O[C@H](CO)[C@H](O)[C@H](O)[C@H]2NC(C)=O)NC(=O)[C@H](CCC(N)=O)NC(=O)[C@@H](N)[C@@H](C)O)CSSC[C@@H]2NC(=O)[C@H]([C@@H](C)O)NC(=O)[C@H]([C@@H](C)O)NC(=O)CNC(=O)[C@H](CO)NC(=O)[C@H](C)NC(=O)[C@H](CSSC[C@@H](C(=O)N[C@@H](CC(C)C)C(=O)O)NC(=O)[C@H](CCC(N)=O)NC(=O)[C@H](CO)NC(=O)[C@H](Cc3ccc(O)cc3)NC(=O)[C@H](Cc3ccc(O)cc3)NC(=O)[C@@H]3CCCN3C(=O)[C@H](CC(N)=O)NC(=O)[C@H](CC(C)C)NC(=O)[C@H](C(C)C)NC(=O)[C@H](CCC(N)=O)NC2=O)NC(=O)[C@H](C(C)C)NC(=O)[C@H]([C@@H](C)O)NC(=O)[C@@H]2CCCN2C(=O)CNC(=O)[C@H](CO)NC(=O)[C@H](Cc2ccc(O)cc2)NC(=O)CNC1=O` [CBM variant 25] (H-TQS(αGalNAc)HYGQCGGIGYSGPTVCASGTTCQVLNPYYSQCL-OH; disulfide 8-25, 19-35) were 9 min and 22.8 ± 3 min.
Taken in the same sequence, the figures for `CC[C@H](C)[C@@H]1NC(=O)CNC(=O)CNC(=O)[C@@H](NC(=O)[C@H](CCC(N)=O)NC(=O)CNC(=O)[C@H](Cc2ccc(O)cc2)NC(=O)[C@H](Cc2c[nH]cn2)NC(=O)[C@H](CO[C@H]2O[C@H](CO)[C@H](O)[C@H](O)[C@H]2O)NC(=O)[C@H](CCC(N)=O)NC(=O)[C@@H](N)[C@@H](C)O)CSSC[C@@H]2NC(=O)[C@H]([C@@H](C)O)NC(=O)[C@H]([C@@H](C)O)NC(=O)CNC(=O)[C@H](CO)NC(=O)[C@H](C)NC(=O)[C@H](CSSC[C@@H](C(=O)N[C@@H](CC(C)C)C(=O)O)NC(=O)[C@H](CCC(N)=O)NC(=O)[C@H](CO)NC(=O)[C@H](Cc3ccc(O)cc3)NC(=O)[C@H](Cc3ccc(O)cc3)NC(=O)[C@@H]3CCCN3C(=O)[C@H](CC(N)=O)NC(=O)[C@H](CC(C)C)NC(=O)[C@H](C(C)C)NC(=O)[C@H](CCC(N)=O)NC2=O)NC(=O)[C@H](C(C)C)NC(=O)[C@H]([C@@H](C)O)NC(=O)[C@@H]2CCCN2C(=O)CNC(=O)[C@H](CO)NC(=O)[C@H](Cc2ccc(O)cc2)NC(=O)CNC1=O` [CBM variant 26] (H-TQS(X9)HYGQCGGIGYSGPTVCASGTTCQVLNPYYSQCL-OH; disulfide 8-25, 19-35) were 16.2 min and 30 ± 3 min.
